This series has as its target ATP-dependent translocase ABCB1 (Homo sapiens, UniProt P08183). Nature of the series: TP_TRANSPORTER: ATPase assay in reconstituted P-gp. The format is functional.

Sequence of ATP-dependent translocase ABCB1 (P08183 whole entry): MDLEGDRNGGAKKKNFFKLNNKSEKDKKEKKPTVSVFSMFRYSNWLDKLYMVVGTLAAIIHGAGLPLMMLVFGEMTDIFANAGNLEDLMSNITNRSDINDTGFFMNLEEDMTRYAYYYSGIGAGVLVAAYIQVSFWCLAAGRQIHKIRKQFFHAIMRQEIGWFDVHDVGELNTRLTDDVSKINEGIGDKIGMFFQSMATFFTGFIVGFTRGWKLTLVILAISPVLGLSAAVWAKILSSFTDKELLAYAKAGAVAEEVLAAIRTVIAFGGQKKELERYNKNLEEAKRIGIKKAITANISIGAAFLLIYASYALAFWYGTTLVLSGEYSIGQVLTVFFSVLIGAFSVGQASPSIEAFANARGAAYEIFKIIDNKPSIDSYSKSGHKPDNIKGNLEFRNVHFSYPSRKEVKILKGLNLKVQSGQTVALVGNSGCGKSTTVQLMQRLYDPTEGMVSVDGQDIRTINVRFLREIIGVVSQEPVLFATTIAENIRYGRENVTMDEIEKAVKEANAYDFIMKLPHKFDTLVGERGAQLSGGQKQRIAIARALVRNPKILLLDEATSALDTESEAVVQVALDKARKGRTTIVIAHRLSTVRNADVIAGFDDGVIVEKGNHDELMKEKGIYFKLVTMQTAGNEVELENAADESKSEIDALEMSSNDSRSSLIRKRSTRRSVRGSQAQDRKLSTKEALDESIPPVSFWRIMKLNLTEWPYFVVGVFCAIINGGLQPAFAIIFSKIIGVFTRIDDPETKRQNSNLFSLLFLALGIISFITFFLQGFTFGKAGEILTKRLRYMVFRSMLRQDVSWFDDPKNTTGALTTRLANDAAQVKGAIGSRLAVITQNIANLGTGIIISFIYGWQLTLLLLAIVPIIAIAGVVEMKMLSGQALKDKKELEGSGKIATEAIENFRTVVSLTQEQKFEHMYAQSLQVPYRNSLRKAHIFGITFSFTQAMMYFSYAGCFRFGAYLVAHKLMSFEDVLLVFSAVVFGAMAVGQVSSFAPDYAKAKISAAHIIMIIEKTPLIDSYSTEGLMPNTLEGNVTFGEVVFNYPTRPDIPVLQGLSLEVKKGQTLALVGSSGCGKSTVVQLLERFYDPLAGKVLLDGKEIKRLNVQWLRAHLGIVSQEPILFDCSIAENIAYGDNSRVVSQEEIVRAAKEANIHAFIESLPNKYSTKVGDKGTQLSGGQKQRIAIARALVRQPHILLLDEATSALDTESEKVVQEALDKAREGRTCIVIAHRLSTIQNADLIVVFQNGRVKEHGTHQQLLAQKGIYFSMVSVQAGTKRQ

As to `CC(=O)O[C@H]1C(=O)[C@@]2(C)C([C@H](OC(=O)c3ccccc3)[C@]3(O)C[C@H](OC(=O)[C@H](O)[C@@H](NC(=O)CCC4=[N+]5C(=Cc6c(C)cc(C)n6[B-]5(F)F)C=C4)c4ccccc4)C(C)=C1C3(C)C)[C@]1(OC(C)=O)CO[C@@H]1C[C@@H]2O` (stereo partly specified), the Activity entry was “substrate [+]”.

Values taken from ChEMBL document CHEMBL2073903, “The expression of P-glycoprotein does influence the distribution of novel fluorescent compounds in solid tumour models” (Br J Cancer, 2003).
